How the values were obtained:
Assay type in all cases: in vivo, C57BL/6N mice
interstitial collagen = assay: Cardiac fibrosis in Transverse Aortic Constriction (TAC) mouse model; details: 12.5 mg/kg/day ip
Procedure: (§1) Twelve weeks C57BL/6N old mice were anesthetised with ketamine/xylazine (100 mg/kg and 10 mg/kg, respectively) and mechanically ventilated (SAR-830/AP, CWE). The transverse aortic arch was ligated by tying a 6-0 silk suture around the aorta and a 27G needle to yield a partial and reproducible constriction when the needle was removed. In sham animals, the aortic arch was visualized but not banded. Thorax was closed and analgesia was administrated (buprenorphine at 0.1 mg/kg every 12 hours until 48 hours). Mice were euthanized by lethal intraperitoneal dose of sodium pentobarbital (100 mg/kg) (Cat. No. 4579, Tocris).
(§2) The LAT1 inhibitor JPH203 (Cat. No. S8667) was intraperitoneally (ip) and chronically administered, starting the following day after TAC surgery.
(§3) Mice were randomly distributed to receive JPH203 at 12.5 mg/kg/day (prepared at 2 mg/ml of 40% 2-hydroxipropil-beta-cyclodextrin in saline). Sham and control groups received JPH203 vehicle (40% 2-hydroxipropil-beta-cyclodextrin in saline). Mice were euthanized 2 or 5 weeks after surgery.
Hearts were fixed in buffered 4% paraformaldehyde and embedded in paraffin for histological evaluation. The amount of interstitial collagen deposition was determined in 4 µm transverse sections at the papillary muscles level stained with Picrosirius red (Sigma-Aldrich). At least ten random photomicrographs per animal were taken with the Leica DM IRBE Inverted Fluorescence Microscope at x200 magnification. The analysis was performed using Image J 1.50 Software. Interstitial fibrosis was expressed as the percentage of fibrotic area with respect to total area under quantification, perivascular fibrosis was manually excluded from the analysis.

[1] = tested on: heart failure induced by aortic stenosis; assay: Ventricular dilatation, cardiac function (echocardiography) and pulmonary oedema in TAC mouse model; details: after 5 weeks of TAC surgery, 12.5 mg/kg/day ip, vs control group
Procedure: as §1, §2, §3
(§4) Mice underwent transthoracic echocardiography at baseline (before surgery) and at 1, 2 and 5 weeks after surgery. Echocardiography was performed using a Prospect T1 Preclinical High Frequency Ultrasound System with a PB406e Probe 40MHz transducer (S-Sharp) applied to the shaved chest wall of mice anesthetized with isoflurane. The ejection fraction (EF), the left ventricular end-systolic (LVESd) and diastolic (LVEDd) internal diameters, left ventricular anterior wall (LVAW) thickness and left ventricular posterior wall (LVPW) thickness were measured in M-mode recordings.

heart hypertrophy = assay: Cardiac hypertrophy in Transverse Aortic Constriction (TAC) mouse model; details: 12.5 mg/kg/day ip, vs control group
Procedure: as §1, §2, §3, §4
Hypertrophy was calculated as heart weight-to-tibia length ratio. Echocardiographic parameters like IVS and LVPW thicknesses, as well as BNP and Myh7 mRNA levels, are the common parameters used to define myocardial hypertrophy.

[2] = tested on: genes involved in BCAA catabolism; assay: BCAA catabolism gene expression (microarray, RT-PCR) in hearts of TAC mice; details: 12.5 mg/kg/day ip
Procedure: as §1, §2, §3
Total RNA was extracted from heart samples using the NZY Total RNA Isolation kit (Cat. No. MB13402, NZY Tech) following the manufacturer's protocol.
RNA was reverse transcribed into cDNA using a High-Capacity cDNA Reverse Transcription kit (Cat. No. 4368814, Applied Biosystems) following manufacturer's instructions. The thermal cycler (Bio-Rad) was programmed to run a single cycle of 25 °C for 10 min, 37 °C for 120 min, 85 °C for 5 min and kept at 4 °C until use.
For determination of differential gene expression, RNA was isolated, as previously described, from mice myocardial samples and its quality was analysed by capillary electrophoresis (Bioanalyzer 2100, Agilent) and amplified using the WT Plus Reagent Kit-HT (Applied Biosystems, Thermo Fisher Scientific). Microarray service was done by the Molecular Diagnosis and Genomic platforms of the High Technology Unit (VHIR) using Clariom S type arrays specific for mouse transcriptome (plate format) (Applied Biosystems). […]

myocardial BCAA content = assay: LC-MS/MS of BCAA and leucine metabolites in heart extracts of TAC mice
Procedure: as §1, §2, §3
After 5 hours of fasting, mice were injected with an intraperitoneal dose of L-Leucine-^13C6, ^15N (Cat. No. 608068, Sigma-Aldrich) at 0.1 mg/g 30 minutes before euthanizing with a lethal injection of sodium pentobarbital resuspended in saline and injected at 100 mg/kg (Cat. No. 4579, Tocris).
The levels of Branched-Chain Amino Acids (BCAA) and their main metabolites in biological samples will be determined by Liquid Chromatography tandem Mass Spectrometry (LC-MS/MS). Briefly, the determination of amino acids (BCAA but also amino acids involved in glutaminolysis) was performed by using a hydrophilic interaction chromatography (HILIC) with an amide column. After addition of the adequate internal standard (containing labelled analogues), protein precipitation with organic solvents and centrifugation, the supernatant was injected into the LC-MS/MS system operating in a Selected Reaction Monitoring (SRM) method by acquiring two transitions for each compound. The determination of α-ketoacids, α-hydroxy acids and SCFA (including the main BCAA metabolites and other compounds related with glutaminolysis) was performed by oBHA derivatization. The internal standard (containing labelled analogues) was added into the sample and the mixture was derivatized by adding a derivatizing mixture consisting in oBHA:EDC (1:1) in pyridine. After reaction for 1 h at room temperature, 1 mL of milliQ water and 4 mL of ethyl acetate was added to perform a liquid-liquid extraction. […] Quantification was performed by means of external calibration using authentic referent material. […] Several quality control samples (QCs) were analysed with every analytical batch with the aim of checking the inter-batch robustness of the results. […]

[3] = 13C,15N-leucine ip 30 minutes before heart extraction, 2 weeks of TAC, 12.5 mg/kg/day ip

`Nc1cc(COc2c(Cl)cc(C[C@H](N)C(=O)O)cc2Cl)c2oc(-c3ccccc3)nc2c1` [JPH203, O-[(5-amino-2-phenyl-1,3-benzoxazol-7-yl)methyl]-3,5-dichloro-L-tyrosine] was tested, and the “reduced interstitial collagen deposition” value (interstitial collagen; Picrosirius Red stained heart sections, P<0.001) was 57%, the “attenuation in the expression of collagen III” value (interstitial collagen; RT-PCR, myocardial homogenates after two weeks of TAC surgery, P=0.002) was 58% and the “attenuation in the expression of collagen I” value (interstitial collagen; RT-PCR, myocardial homogenates after two weeks of TAC surgery, P=0.003) was 56%. The “attenuation of the development of pulmonary oedema (water content in lungs)” value ([1]; P<0.001) was 56%, the “attenuation of cardiac dysfunction (reduction in ejection fraction)” value ([1]; P=0.030) was 38% and the “reduction of the diastolic volume (LVEDV)” value ([1]; echocardiography, P=0.017) was 60%. The “reduction of the systolic volume (LVESV)” value ([1]; echocardiography, P=0.021) was 51%, the “attenuation of the increase in HW/TL ratio” value (heart hypertrophy; 5 weeks of aortic stenosis, P<0.001) was 33% and the “attenuation of the increase in MyH7/MyH6 ratio” value (heart hypertrophy; RT-PCR, P<0.001) was 44%. For the same compound, the “attenuation of the increase in BNP expression” value (heart hypertrophy; RT-PCR, P=0.001) was 65%, the “reduction of posterior wall thickness” value (heart hypertrophy; echocardiography, diastole, P=0.006) was 28% and the “reduction of anterior wall thickness” value (heart hypertrophy; echocardiography, diastole, P=0.026) was 30%. The “reduction in the expression of PP1MK” value ([2]; RT-PCR, hearts, vs control hearts, P=0.013) was “significantly attenuated”, the “reduction in the expression of BCKDHB” value ([2]; RT-PCR, hearts, vs control hearts, P=0.015) was “significantly attenuated” and the “downregulation of genes involved in BCAA catabolism induced by TAC surgery” value ([2]; microarray, myocardial samples, JPH203 treated vs sham mice) was “attenuates the downregulation”. The “increase in the ratio between the plasma and myocardial content of 13C6,15N-leucine (leucine uptake)” value (myocardial BCAA content; [3]) was “prevented these alterations”, the “reduction in the levels of the 13C6,15N-leucine metabolite 13C-HMG” value (myocardial BCAA content; [3]) was “prevented these alterations” and the “reduction in the levels of the 13C6,15N-leucine metabolite 13C-isovaleric acid” value (myocardial BCAA content; [3]) was “prevented these alterations”. For the same compound, the “increase in the myocardial content of BCAA (valine, leucine and isoleucine)” value (myocardial BCAA content; LC-MS/MS, heart extracts after 2 weeks of TAC surgery, chronic administration 12.5 mg/kg/day ip) was “significantly attenuated”.

Reference: patent EP4545076A1, “LAT1 SELECTIVE INHIBITORS FOR USE IN THE TREATMENT OF ADVERSE VENTRICULAR -REMODELLING AND OF HEART FAILURE” (Fundació Hospital Universitari Vall d'Hebron - Institut de …, priority 2023, dated 2025)
